Values of other authors as cited in paper PMC5531494, “Target specificity, in vivo pharmacokinetics, and efficacy of the putative STAT3 inhibitor LY5 in osteosarcoma, Ewing's sarcoma, and rhabdomyosarcoma” (PLoS ONE, 2017).

Settings: earlier work of the authors; cited from earlier work

**Q.** With `NS(=O)(=O)c1cccc2c1C(=O)c1cccc(O)c1C2=O` [LLL12] as the compound, how does the oral bioavailability read?
**A.** poor oral bioavailability
